Broadly, the Ki is a measure of affinity in units of concentration, obtained from inhibition or displacement.

Here are results for 1 molecule from ChEMBL document CHEMBL5727383, “[1,2,3]triazolo[4,5-D]pyrimidine derivatives” (2019).

This assay concerns the target Cannabinoid receptor 2 (Homo sapiens, UniProt P34972). Description: Radioligand Binding Assay: The affinity of the compounds of the invention for cannabinoid receptors was determined using recommended amounts of membrane preparations (PerkinElmer) of human embryonic kidney (HEK) cells expressing the human CNR1 or CNR2 receptors in conjunction with 1.5 or 2.6 nM [3H]-CP-55,940 (Perkin Elmer) as radioligand, respectively. Binding was performed in binding buffer (50 mM Tris, 5 mM MgCl2, 2.5 mM EDTA, and 0.5% (wt/vol) fatty acid free BSA, pH 7.4 for CB1 receptor and 50 mM Tris, 5 mM MgCl2, 2.5 mM EGTA, and 0.1% (wt/vol) fatty acid free BSA, pH 7.4 for CB2 receptor) in a total volume of 0.2 mL for 1 h at 30° C. shaking. The reaction was terminated by rapid filtration through microfiltration plates coated with 0.5% polyethylenimine (UniFilter GF/B filter plate; Packard). Bound radioactivity was analyzed for Ki using nonlinear regression analysis (Activity Base, ID Business Solution, Limited), with the Kd values for [3H]CP55,940 determined from saturation experiments.

Chain of Cannabinoid receptor 2 (P34972 whole entry): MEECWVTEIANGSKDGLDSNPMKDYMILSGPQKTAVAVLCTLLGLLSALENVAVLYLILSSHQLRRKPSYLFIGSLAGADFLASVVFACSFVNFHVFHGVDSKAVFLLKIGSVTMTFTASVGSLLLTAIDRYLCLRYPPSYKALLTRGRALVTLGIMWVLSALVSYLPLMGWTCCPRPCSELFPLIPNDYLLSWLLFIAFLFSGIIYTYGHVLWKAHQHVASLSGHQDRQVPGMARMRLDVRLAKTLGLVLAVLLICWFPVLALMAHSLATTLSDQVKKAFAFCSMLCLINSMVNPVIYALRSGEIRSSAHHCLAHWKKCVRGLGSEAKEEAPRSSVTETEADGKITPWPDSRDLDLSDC

For `CC(C)(C)c1nc(N2CCC(F)(F)C2)c2nn(Cc3ccc(C4(C(F)(F)F)N=N4)cc3Cl)nc2n1`, the Ki was 2340 nM.
